Like-named read-outs stand apart in the source and are kept apart here.
Legend:
[1] = biological target: T1, Bevacizumab (Homo sapiens, UniProt P01857); assay: Microtiter plate chromatography of resins, Bevacizumab whole IgG (bound, yield, selectivity); type: binding, humanized
T1 construct: fused on or other part: humanised anti-VEGF-A VH domain N-terminal of the gamma-1 constant region (engineered, no UniProt entry)

[2] = system: Bevacizumab; assay: as above; type: binding, humanized
[3] = system: Tocilizumab; assay: Microtiter plate chromatography of resins, Tocilizumab (bound, yield); type: binding, humanized
[4] = system: Palivizumab; assay: Microtiter plate chromatography of resins, Palivizumab (bound, yield); type: binding, humanized
[5] = system: human poly-IgG (h-poly-IgG); assay: Microtiter plate chromatography of resins, human poly-IgG (bound, yield); type: binding
[6] = system: host cell proteins (HCP); assay: Microtiter plate chromatography of resins, host cell proteins (bound); type: binding, CHO
[7] = fraction of whole IgG Bevacizumab bound to resin
[8] = mass of whole IgG Bevacizumab eluted / mass injected
[9] = fraction of injected protein bound to resin

Structure (SMILES)	Bevacizumab IgG Bound (%) [1, 7] [%]	Bevacizumab IgG Yield (%) [1, 8] [%]	Selectivity [2]	Tocilizumab Bound (%) [3] [%]	Tocilizumab Yield (%) [3] [%]	Palivizumab Bound (%) [4] [%]	Palivizumab Yield (%) [4] [%]	h-poly-IgG Bound (%) [5] [%]	h-poly-IgG Yield (%) [5] [%]	HCP Bound (%) ([6]; host cell proteins)	also measured
COc1ccc(NC(=O)c2cc(-c3cccc(Cl)c3)n(C)n2)cc1C(=O)NCCCN [Ligand L7, 5-[5-(3-Chlorophenyl)-1-methylpyrazol-3-yl]carboxamido-2-methoxybenzoic acid N-(3-aminopropyl)amide]	100	110	1.4	92	109	100	99	100	91	70	–
COc1ccc(NC(=O)c2cc(C)n(C)n2)cc1C(=O)NCCCN [Ligand L33, 5-(1,5-Dimethylpyrazol-3-yl)carboxamido-2-methoxybenzoic acid N-(3-aminopropyl)amide]	99	83	5.8	48	51	33	31	51	39	17	–
COc1ccc(NC(=O)c2cc3ccccn3n2)cc1C(=O)NCCCN [Ligand L46, 2-Methoxy-5-(pyrazolo[1,5-a]pyridin-2-ylcarboxamido)benzoic acid (3-amino-1-propyl)amide]	100	82	5.0	100	97	85	85	93	93	20	–
Cn1nc(C(=O)Nc2ccc(C(=O)NCCCN)cc2)cc1-c1ccco1 [Ligand L18, 4-[5-(2-Furyl)-1-methylpyrazol-3-yl]carboxamidobenzoic acid N-(3-aminopropyl)amide]	100	95	2.2	76	76	54	43	68	71	46	–
COc1ccc(NC(=O)c2cncc(-c3cc4ccccc4s3)c2)cc1C(=O)NCCCN [Ligand L14, 5-[3-(2-Benzothienyl)pyridin-5-yl]carboxamido-2-methoxybenzoic acid N-(3-aminopropyl)amide]	99	89	1.3	82	74	66	61	73	62	74	–
COc1ccc(NC(=O)c2cncc(-c3ccc(C(F)(F)F)cc3)c2)cc1C(=O)NCCCN [Ligand L12, 2-Methoxy-5-{3-[4-(trifluoromethyl)phenyl]pyridin-5-yl}carboxamidobenzoic acid N-(3-aminopropyl)amide]	100	50	1.6	61	49	52	41	68	37	63	–
COc1ccc(NC(=O)c2c[nH]c3ccccc23)cc1C(=O)NCCCN [Ligand L26, 5-(Indol-3-yl)carboxamido-2-methoxybenzoic acid N-(3-aminopropyl)amide]	100	94	2.4	77	84	58	59	75	74	42	–
COc1ccc(NC(=O)c2cn3cccnc3n2)cc1C(=O)NCCCN [Ligand L63, 5-(Imidazo[1,2-a]pyrimidin-2-ylcarboxamido)-2-methoxybenzoic acid (3-amino-1-propyl)amide]	100	95	–	4	4	0	0	11	10	3	Selectivity ([2]; fraction of bound Bevacizumab whole IgG / fraction of bound HCP, truncated beyond values of 10): 10.0
COc1ccc(NC(=O)c2nnc(-c3ccco3)o2)cc1C(=O)NCCCN [Ligand L58, 5-[5-(2-Furyl)-1,3,4-oxadiazol-2-yl]carboxamido-2-methoxybenzoic acid (3-amino-1-propyl)amide]	100	90	4.3	100	100	97	83	98	93	23	–
NCCCNC(=O)c1cccc(C(=O)Nc2cc(-c3ccco3)[nH]n2)c1 [Ligand L21, 3-{N-[5-(2-Furyl)pyrazol-3-yl]carbamoyl}benzoic acid N′-(3-aminopropyl)amide]	99	95	2.0	52	53	26	26	54	61	50	–
COc1ccc(NC(=O)c2nc3ccccc3[nH]2)cc1C(=O)NCCCN [Ligand L47, 5-(1H-Benzimidazol-2-ylcarboxamido)-2-methoxybenzoic acid (3-amino-1-propyl)amide]	100	97	2.9	100	100	85	85	71	65	35	–
COc1ccc(NC(=O)c2cc3ncccn3n2)cc1C(=O)NCCCN [Ligand L56, 2-Methoxy-5-(pyrazolo[1,5-a]pyrimidin-2-ylcarboxamido)benzoic acid (3-amino-1-propyl)amide]	100	95	4.9	95	95	81	79	83	83	21	–
COc1ccc(NC(=O)c2cc(-c3ccco3)on2)cc1C(=O)NCCCN [Ligand L45, 5-[5-(2-Furyl)isoxazol-3-ylcarboxamido]-2-methoxybenzoic acid (3-amino-1-propyl)amide]	100	82	2.3	100	100	100	100	100	100	44	–
COc1ccc(NC(=O)c2cc(-c3csc(C)n3)on2)cc1C(=O)NCCCN [Ligand L42, 2-Methoxy-5-[5-(2-methylthiazol-4-yl)isoxazol-3-ylcarboxamido]benzoic acid (3-amino-1-propyl)amide]	100	92	3.1	100	99	99	99	100	100	32	–
COc1ccc(NC(=O)c2cn3ccsc3n2)cc1C(=O)NCCCN [Ligand L37, 5-(Imidazo[2,1-b]thiazol-6-yl)carboxamido-2-methoxybenzoic acid N-(3-aminopropyl)amide]	100	92	3.4	99	95	92	87	94	70	29	selectivity index ([2]; fraction of bound Bevacizumab whole IgG divided by fraction of bound HCP, truncated beyond 10): 3.4
COc1ccc(NC(=O)c2cn3ccsc3n2)cc1C(=O)NCCCCCC(=O)NCCOCCOCCN [Ligand L76, 6-[5-(Imidazo[2,1-b]thiazol-6-ylcarboxamido)-2-methoxyphenylcarboxamido]hexanoic acid (8-amino-3,6-dioxa-1-octyl)amide]	–	–	–	–	–	–	–	–	–	–	Bevacizumab IgG Bound (%) ([1]; fraction of injected whole IgG bound to resin): 100%; Bevacizumab IgG Yield (%) ([1]; mass eluted / mass injected, whole IgG): 98%; Selectivity ([2]; bound Bevacizumab whole IgG / bound HCP, truncated beyond values of 10): 10.0; Tocilizumab Bound (%) [3, 9]: 93%; Tocilizumab Yield (%) ([3]; mass eluted / mass injected): 89%; Palivizumab Bound (%) [4, 9]: 59%; Palivizumab Yield (%) ([4]; mass eluted / mass injected): 59%; h-poly-IgG Bound (%) [5, 9]: 73%; h-poly-IgG Yield (%) ([5]; mass eluted / mass injected): 73%; HCP Bound (%) ([6]; fraction of injected host cell proteins bound to resin): 9%

— patent publication US20130131321A1, “LIGANDS FOR ANTIBODY AND Fc-FUSION PROTEIN PURIFICATION BY AFFINITY CHROMATOGRAPHY” (GRAFFINITY PHARMACEUTICALS GMBH, priority 2010, published 2013)
